Test results reported in publication PMC9230797, “Integration of a Physiologically Based Pharmacokinetic and Pharmacodynamic Model for Tegoprazan and Its Metabolite: Application for Predicting Food Effect and Intragastric pH Alterations” (Pharmaceutics, 2022).
Several values for one entry are separate records, joined by “and”; a condition that tells them apart may be missing. Equal values may be shown once. Read-outs that look alike come from different tables or passages of the source.

Columns and labels:
CYP3A4 [1] = target: T1, CYP3A4 (Homo sapiens, UniProt P08684); experiment: Intrinsic clearance using recombinant CYPs: CYP3A4; type: in vitro ADME
T1 construct: purchased Corning Life Sciences (Woburn, MA, USA)
Protocol: (§1) The elimination profiles of tegoprazan and M1 were assessed using rCYPs. All the assay procedures were performed according to the manufacturer’s instructions. Master mix (1.399 mL), containing the NADPH-generating system, 3.3 mM of glucose 6-phosphate, PBS buffer, deionized water, and each rCYP (25 pmol/μL of CYP2C8, 2C19, and 2E1 and 50 pmol/μL of CYP3A4, 2C9, and 2D6), was added to a microtube and pre-incubated at 37 °C for 5 min. Next, 1 μM tegoprazan and M1 were added and incubated at 37 °C for 0, 5, 10, 20, 30, 45, and 60 min. A total of 100 μL of the sample, incubated for predefined duration, was transferred to a fresh e-tube. Next, 200 μL of acetonitrile containing tegoprazan-d6 (0.5 μM) was added, vortexed for 5 min, and centrifuged at 16,200× g and 4 °C for 10 min. The concentrations of the remaining tegoprazan and M1 were determined by LC–MS/MS. All experiments were performed in duplicate. CLint,rCYP levels were assessed using the results of the disappearance test. […] The CLint resulting from rCYPs was calculated using Equation (3):(3) CLint,rCYP(μL/min/pmol CYP)=0.693/t1/2×1400/concentration of CYP
(§2) Caco-2 and rCYP samples were quantified using LC-MS/MS (UPLC® I-class coupled with TQ-MS (Waters, Milford, MA, USA). The mobile phase comprised (a) 0.1% formic acid and (b) acetonitrile containing 0.1% formic acid. Gradient elution at a flow rate of 0.3 mL/min was applied. Tegoprazan, M1, and the internal standard (tegoprazan-d6) were optimized in electrospray ionization positive mode. Acetonitrile with 0.1 μM of tegoprazan-d6 was added to the collected Caco-2 or rCYP samples. Then, processed samples were centrifuged at 13,000× g for 20 min. After centrifugation, 100 μL of supernatant was transferred to an LC-MS vial and analyzed using LC-MS/MS. […] The stability of tegoprazan was evaluated, and it satisfied the acceptance criteria (coefficient of variances was within 15%) under variable conditions including reinjection, processed sample stability (PSS), and short-term stability for the stock and sample.

porcine H^+/K^+-ATPase = details: experimental; read-out: half maximal inhibitory concentration (IC50); cited from earlier work
[2] = ADAM model prediction of regional absorption, gut metabolism, surface solubility and residence time; set-up: species or system human; details: at 30 min after a high-fat meal
Protocol: The absorption of tegoprazan was applied to the advanced dissolution, absorption, and metabolism (ADAM) model, and the diffusion layer model (DLM) built into SimCYP® was applied to the considered formulation and pH-dependent solubility of tegoprazan. The permeability of tegoprazan was determined by a Caco-2 permeability assay and optimized by parameter estimation. Caco-2 permeability was optimized such that the predicted concentration–time profiles were fitted to clinical study data. The metabolite was generated by the metabolism of the parent drug; therefore, absorption was not considered.
Postprandial PK profiles were predicted using an established model. Concentration–time profiles were obtained following a single oral dose (50 mg) of tegoprazan in the fasting state or 30 min after a high-fat diet. The predicted AUClast, Cmax, and Tmax values were compared with those of a previous clinical study.

recombinant CYP2D6 = target: T2, recombinant CYP2D6 (Homo sapiens, UniProt P10635); experiment: Intrinsic clearance using recombinant CYPs: CYP2D6; type: in vitro ADME; details: 1 μM
T2 construct: purchased Corning Life Sciences (Woburn, MA, USA)
Protocol: The elimination profiles of tegoprazan and M1 were assessed using rCYPs. All the assay procedures were performed according to the manufacturer’s instructions. Master mix (1.399 mL), containing the NADPH-generating system, 3.3 mM of glucose 6-phosphate, PBS buffer, deionized water, and each rCYP (25 pmol/μL of CYP2C8, 2C19, and 2E1 and 50 pmol/μL of CYP3A4, 2C9, and 2D6), was added to a microtube and pre-incubated at 37 °C for 5 min. Next, 1 μM tegoprazan and M1 were added and incubated at 37 °C for 0, 5, 10, 20, 30, 45, and 60 min. A total of 100 μL of the sample, incubated for predefined duration, was transferred to a fresh e-tube. Next, 200 μL of acetonitrile containing tegoprazan-d6 (0.5 μM) was added, vortexed for 5 min, and centrifuged at 16,200× g and 4 °C for 10 min. The concentrations of the remaining tegoprazan and M1 were determined by LC–MS/MS. All experiments were performed in duplicate. CLint,rCYP levels were assessed using the results of the disappearance test. The terminal slope of the linear regression was used to determine the CLint for tegoprazan. The CLint resulting from rCYPs was calculated using Equation (3):(3) CLint,rCYP(μL/min/pmol CYP)=0.693/t1/2×1400/concentration of CYP […]

[3] = weak base; cited from earlier work
CYP2C19 = target: T3, CYP2C19 (Homo sapiens, UniProt P33261); experiment: Intrinsic clearance using recombinant CYPs: CYP2C19; type: in vitro ADME
T3 construct: purchased Corning Life Sciences (Woburn, MA, USA)
Protocol: as §1, §2

CYP3A4 [4] = system: CYP3A4; set-up: method as in ref 18 = [18]; PMID 34575565; doi:10.3390/pharmaceutics13091489; 18. Yoon D.Y. Lee S. Jang I.-J. Kim M. Lee H. Kim S. Kim B. Song G.S. Rhee S.-J. Prediction of Drug–Drug Interaction Potential of Tegoprazan Using Physiologically Based Pharmacokinetic Modeling and Si; details: cited from earlier work
[5] = cited from earlier work
[6] = set-up: method as in earlier work; details: cited from earlier work
[7] = 1 μM, experimental (initial model value)
[8] = At 30 min after a high-fat meal, Observed (n = 12), single 50 mg, ref 34 (footnote; text: ref 16)

T3 sequence (P33261 whole entry): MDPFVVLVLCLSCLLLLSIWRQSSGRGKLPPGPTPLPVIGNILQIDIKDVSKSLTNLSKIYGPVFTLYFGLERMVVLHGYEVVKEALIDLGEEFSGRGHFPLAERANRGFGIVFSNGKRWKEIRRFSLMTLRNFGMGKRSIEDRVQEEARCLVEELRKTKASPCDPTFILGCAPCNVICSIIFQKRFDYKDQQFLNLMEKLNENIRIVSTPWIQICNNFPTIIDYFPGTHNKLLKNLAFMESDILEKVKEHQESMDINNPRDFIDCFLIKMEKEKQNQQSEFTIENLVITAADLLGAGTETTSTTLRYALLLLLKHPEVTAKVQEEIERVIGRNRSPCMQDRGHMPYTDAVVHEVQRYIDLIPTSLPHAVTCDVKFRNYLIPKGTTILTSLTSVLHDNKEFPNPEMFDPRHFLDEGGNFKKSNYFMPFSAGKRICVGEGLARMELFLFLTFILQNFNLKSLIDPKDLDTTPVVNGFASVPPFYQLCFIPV
T2 sequence (P10635 whole entry): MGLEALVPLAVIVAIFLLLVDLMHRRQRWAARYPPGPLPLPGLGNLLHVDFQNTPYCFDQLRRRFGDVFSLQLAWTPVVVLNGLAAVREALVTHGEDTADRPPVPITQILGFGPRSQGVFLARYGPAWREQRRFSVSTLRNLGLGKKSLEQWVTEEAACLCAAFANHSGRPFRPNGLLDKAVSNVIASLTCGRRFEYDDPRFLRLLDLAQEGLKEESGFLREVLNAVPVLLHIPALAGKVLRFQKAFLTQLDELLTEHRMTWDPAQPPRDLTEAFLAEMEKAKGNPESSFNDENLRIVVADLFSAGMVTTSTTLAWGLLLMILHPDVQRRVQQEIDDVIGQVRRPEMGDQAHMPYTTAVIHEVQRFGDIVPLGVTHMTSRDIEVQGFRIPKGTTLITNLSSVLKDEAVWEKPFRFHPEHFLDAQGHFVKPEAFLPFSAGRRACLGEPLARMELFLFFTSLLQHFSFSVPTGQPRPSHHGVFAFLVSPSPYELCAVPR
T1 sequence (P08684 whole entry): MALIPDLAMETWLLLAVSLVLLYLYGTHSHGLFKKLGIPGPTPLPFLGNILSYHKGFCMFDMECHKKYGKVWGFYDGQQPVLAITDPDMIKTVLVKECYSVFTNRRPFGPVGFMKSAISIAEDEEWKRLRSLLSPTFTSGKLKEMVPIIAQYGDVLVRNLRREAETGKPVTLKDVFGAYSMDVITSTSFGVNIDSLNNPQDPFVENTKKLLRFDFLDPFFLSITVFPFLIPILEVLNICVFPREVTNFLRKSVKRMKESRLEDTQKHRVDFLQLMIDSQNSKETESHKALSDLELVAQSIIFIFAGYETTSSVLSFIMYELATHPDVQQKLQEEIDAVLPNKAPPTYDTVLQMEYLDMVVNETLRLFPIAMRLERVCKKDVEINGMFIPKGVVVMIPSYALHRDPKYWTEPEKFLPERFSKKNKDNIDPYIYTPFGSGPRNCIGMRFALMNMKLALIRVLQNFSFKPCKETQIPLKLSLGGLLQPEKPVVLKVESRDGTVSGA

Cc1nc2cc(C(=O)N(C)C)cc(O[C@H]3CCOc4cc(F)cc(F)c43)c2[nH]1 [tegoprazan]
CLint, CYP3A4 (CYP3A4 [1]; [7]): 0.86 µL/min/pmol and 0.855 µL/min/pmol | half-life at 1 μM (CYP3A4 [1]; human, recombinant CYP3A4, rCYP3A4): 22.7 min | Slope (disappearance) (CYP3A4 [1]; rCYP3A4, 1 μM): -0.031 | IC50 (porcine H^+/K^+-ATPase): 530 nM | increase of predicted absorbed fraction in the duodenum, fed vs fasting [2]: approximately 72.7% | increase of predicted mean residence time in the stomach, fed vs fasting [2]: approximately 170.4% | increase of predicted surface solubility in the duodenum, fed vs fasted [2]: 40.3% | increase of predicted surface solubility in the stomach, fed vs fasted [2]: 14.8% | CLint, CYP2D6 (recombinant CYP2D6; experimental data): 0.02 µL/min/pmol and 0.020 µL/min/pmol | Slope (disappearance) (recombinant CYP2D6; rCYP2D6): < 0.001 | pKa [3]: 5.1 | CLint, CYP2C19 (CYP2C19; [7]): 0.61 µL/min/pmol and 0.614 µL/min/pmol | half-life at 1 μM (CYP2C19; human, recombinant CYP2C19, rCYP2C19): 63.2 min | Slope (disappearance) (CYP2C19; rCYP2C19, 1 μM): -0.011 | predicted systemic exposure change (CYP3A4 [4]; co-administered with the maximum recommended dose of clarithromycin or ketoconazole vs without CYP3A4 modulator): increased by approximately three-fold | predicted decrease of systemic exposure (CYP3A4 [4]; with the CYP3A4 inducer rifampicin): up to 30% | Tmax ([5]; At 30 min after a high-fat meal, Observed (n = 12), single 50 mg, median (min–max), ref 34 (footnote; text: ref 16)): 3.0 (0.5–8.0) h | AUC0–24 h [5, 8]: 3017 ± 1194 ng·h/mL | Cmax [5, 8]: 492.0 ± 293.9 ng/mL | AUC0–24 h ([5]; Fast, Observed (n = 12), single 50 mg, mean ± SD, ref 34 (footnote; text: ref 16)): 2837 ± 1055 ng·h/mL | Cmax ([5]; Fast, Observed (n = 12), single 50 mg, ref 34 (footnote; text: ref 16)): 803.0 ± 156.2 ng/mL | Cmax ([5]; administered at 30 min after high-fat meal, observed): 492 ng/mL | median Tmax ([5]; at 30 min before a high-fat meal, observed): 28.8 min | Cmax ([5]; fasting state, observed): 803 ng/mL | Cmax at 30 min after a high-fat meal compared with fasting state (decreased to) ([5]; observed): 38.7% | CLR (renal clearance) [6]: 1.1 L/h | fu (unbound fraction) ([6]; plasma): 0.087
